Patent US20100240754A1, “UNSATURATED FATTY AMINO ACID DERIVATIVES AND USE THEREOF IN DERMAL COSMETOLOGY” (Pierre Fabre Demo-Cosmetique, priority 2007, published 2010)
“Also recorded” adds a separate entry of the source.

Assays:
production of PG6KF1α = assay: Production of prostaglandin 6KF1α by keratinocytes stimulated with calcium ionophore A23187 (ELISA); assay type: cell-based; conditions: for inhibition at 3 µg/mL: Keratinocyte, read-out: Inhibitory activity % of molecules evaluated on the production of PG6KF1α; for anti-inflammatory potentialities (PG6KF1α production), in words: summary of Table 1 data; for effective dose 45 (DE45), production of PG6KF1α: keratinocytes stimulated with A23187
Experimental: The prostaglandin PG6KF1 alpha, is one of the major metabolites produced by the stimulated keratinocyte, and representative of the modulation of the production of metabolites of the metabolism of arachidonic acid stemming from the cyclo-oxygenase route.
The suspension of keratinocytes in DMEM with 10% FCS is distributed in plates of 6 wells (1.2 106 cells/well), and incubated for 16 hours at 37° C. in an atmosphere with 5% CO2. The keratinocytes are then rinsed with PBS in order to eliminate non-adherent cells and then exposed to the products to be tested included in DMEM without FCS (which might interfere in the assay).
(§1) The tested culture concentration is 3 μg/mL. It was retained after a preliminary test for evaluating cytotoxicity (neutral red) and it is not cytotoxic.
For each treatment, 3 wells were produced. The cells were pre-incubated for 60 min with the products to be tested and then an agent stimulating the cascade of arachidonic acid, the calcium ionophore, is added for 5 hours: the calcium ionophore A23187 is used at a concentration of 1 μM.
After these 5 hours of culture, the culture media of each of the wells are recovered, centrifuged at 3,000 rpm and stored at −80° C.
The production of prostaglandin 6KF1α for each of the tests is measured with the Elisa kit EUROMEDEX.
The results are gathered in Table 1 and are expressed in percentage of activity/stimulated control.

production of IL8 = assay: Production of interleukin 8 induced in keratinocytes by PMA and calcium ionophore A23187 (ELISA); assay type: cell-based; conditions: for inhibition at 3 µg/mL: Keratinocyte, read-out: Inhibitory activity % of molecules evaluated on the production of IL8; for inhibition at 3 µg/mL / Inhibitory activity % of molecules evaluated on the production of IL8: 3 μg/mL, keratinocytes, 60 min pre-incubation, PMA 1 μM + A23187 0.1 μM, 6 hours, percentage of activity/stimulated control; for anti-inflammatory potentialities (IL8 production), in words: summary of Table 2 data
Experimental: In this study conducted on 96-well plates, we evaluated the activity of amino-alkene acids, on the production of interleukin 8 induced at the keratinocyte by the phorbol ester PMA and the calcium ionophore A23187.
The suspension of keratinocytes in supplemented KSFM is distributed into plates of 96 wells (3.10^4 cells/well), and incubated for 16 hours at 37° C. in an atmosphere with 5% CO2. The keratinocytes are then rinsed with PBS in order to remove the non-adherent cells and then exposed to the products to be tested included in non-supplemented KSFM (which might interfere in the assay).
as §1
For each treatment, 3 wells are produced. The cells are pre-incubated for 60 min with the products to be tested and then stimulated, in parallel with negative controls without any stimulant: Phorbol Myristate Acetate (PMA) 1 μM+calcium Ionophore (A23187) 0.1 μM.
Incubation for 6 hours at 37° C. in a humid air atmosphere containing 5% of CO2.
The culture media of each of the wells are recovered, centrifuged at 3,000 rpm and stored at −80° C.
Assay of the cytokines: IL8 is assayed by an immunoenzymatic method with an ELISA kit (Immunotech).
The results are gathered in Table 2 and are expressed in percentage of activity/stimulated control.

fibroblast line L929 = assay: Test of TBARS: lipid peroxidation after H2O2-Fe2+/Fe3+ stress; assay type: cell-based, murine; conditions: for antiradical activity and protection of cell membranes, in words: L929, TBARS test, conclusion from Table 4; for inhibition at 20 pg/mL: Mus musculus, Dose = 0.02 ng/mL, L929, 16 hours pretreatment, H2O2-Fe2+/Fe3+ (200 μM-1 mM) 1 hour, TBARS, read-out: % of protection of membrane lipids, Average
Excerpt: In order to evaluate membrane alteration, we have measured lipid peroxidation by an assay in vitro of the complexes between lipid oxidation products and thiobarbituric acid. These complexes are called TBARS (Thiobarbituric Acid Reactive Substances) and give the name to the test: Test of TBARS.
In order to mimic a chemical oxidative stress, we treated a fibroblast line, L929, with a complex composed of hydrogen peroxide (H2O2) and of iron (Fe^2+/Fe^3+) thereby regenerating Fenton's reaction, source of FORs and more particularly of hydroxyl radicals)(OH^0) (D. A. Vessey et al., 1992):
The products were evaluated on the murine fibroblast line L929. The cells were pretreated with the different concentrations of products for 16 hours and were then stimulated with the complex H2O2—Fe^2+/Fe^3+ (200 μM-1 mM) for 1 hour.
Mother solutions: 100 mg/mL, ethanol, 4° C. Final solutions: 0.02 ng/mL.
Peroxidation of membrane lipids is analyzed by measuring the TBARS (Procedure Ref. PL No. 2, according to Morlière et al., 1991).
In an acid medium, at 95° C., complexes noted as TBARS for Thio Barbituric Acid Reactive Substance are formed, between the lipid oxidation products (malonic dialdehyde or MDA) and thiobarbituric acid (TBA) which may be assayed by fluorescence relatively to a standard range with MDA. The dosage of the TBARS is then expressed in pmol/μg of proteins. The proteins and the TBARS are assayed in the intracellular medium.
From the calculation of the TBARS in pmol/μg of proteins, we calculated the protective efficiency of different products against oxidation of membrane lipids.
Seven independent experiments were conducted. During these experiments, various compounds were evaluated (with the test, it is not possible to evaluate more than 10 molecules at the same time). The compounds which were evaluated several times were selected according to the results obtained in the other test also measuring antiradical activity (test for assaying oxygen active species, OASes).

[1] = 3 μg/mL, keratinocytes, 60 min pre-incubation, calcium ionophore A23187 1 μM for 5 hours, percentage of activity/stimulated control

SMILES	inhibition at 3 µg/mL (production of PG6KF1α; [1])	inhibition at 3 µg/mL (production of IL8)	anti-inflammatory potentialities (IL8 production), in words (production of IL8)	antiradical activity and protection of cell membranes, in words (fibroblast line L929)	inhibition at 20 pg/mL (fibroblast line L929)	Inhibitory activity % of molecules evaluated on the production of PG6KF1α (production of PG6KF1α; [1])	Inhibitory activity % of molecules evaluated on the production of IL8 (production of IL8)	anti-inflammatory potentialities (PG6KF1α production), in words (production of PG6KF1α)	effective dose 45 (DE45), production of PG6KF1α (production of PG6KF1α)
Cl.NCCCCCCC=C(F)C(=O)O [Compound No. 9, 9-amino-2-fluoro-non-2-enoic acid]	17%	20%	anti-inflammatory potentialities	significant antiradical activity	27.5%	–	–	–	–
NCCC/C=C(/F)C(=O)O [Compound No. 2, (E)-6-amino-2-fluoro-hex-2-enoic acid]	–	–	–	–	7.63%	~	~	–	–
NCCCC/C=C(\F)C(=O)O [compound 6, (Z)-7-amino-2-fluoro-hept-2-enoic acid]	25%	< 0%	–	significant antiradical activity; also recorded: most significant antiradical activity	49.8%	–	–	–	–
Cl.NCCCCCCCCCCCC=C(F)C(=O)O [Compound No. 10, 14-amino-2-fluoro-tetradec-2-enoic acid]	38%	8%	–	significant antiradical activity	23.9%	–	–	anti-inflammatory potentialities	–
Cl.NCCC/C=C/C(=O)O [Compound No. 1, (E)-6-amino-hex-2-enoic acid]	< 0%	–	–	–	13.4%	–	~	–	–
Cl.NCCCCC/C=C/C(=O)O [Compound No. 7, (E)-8-amino-oct-2-enoic acid]	36%	–	–	significant antiradical activity; also recorded: most significant antiradical activity	48.3%	–	~	anti-inflammatory potentialities	–
Cl.NCCCCCC/C=C/C(=O)O [Compound No. 8, (E)-9-amino-non-2-enoic acid]	8%	14%	–	significant antiradical activity; also recorded: most significant antiradical activity	56.6%	–	–	–	–
Cl.NCCCC/C=C/C(=O)O [Compound No. 4, (E)-7-amino-hept-2-enoic acid]	18%	–	–	–	8.75%	–	~	–	–
NCCCCC=C(F)C(=O)O [Compound No. 5, (Z+E)-7-amino-2-fluoro-hept-2-enoic acid]	41%	< 0%	–	significant antiradical activity	36.3%	–	–	anti-inflammatory potentialities	25 µg/mL
NCCC/C=C(\F)C(=O)O [compound 3, (Z)-6-amino-2-fluoro-hex-2-enoic acid]	22%	–	–	–	-4%	–	~	–	–
Cl.NCCCCCCCCCCC/C=C/C(=O)O [Compound No. 11, (E)-14-amino-tetradec-2-enoic acid]	40%	22%	anti-inflammatory potentialities	–	-26.3%	–	–	anti-inflammatory potentialities	10 µg/mL
